Reference: ChEMBL document CHEMBL1150007, “Novel indolactam-based inhibitors of matrix metalloproteinases” (Bioorg Med Chem Lett, 1995)

Legend:
[1] = target: 72 kDa type IV collagenase (Homo sapiens, UniProt P08253); assay: Inhibition of human […], matrix metalloprotease-2
Interstitial collagenase = target: T1, Interstitial collagenase (Homo sapiens, UniProt P03956); assay: Inhibition of human fibroblast collagenase, matrix metalloprotease-1
T1 sequence (P03956 whole entry): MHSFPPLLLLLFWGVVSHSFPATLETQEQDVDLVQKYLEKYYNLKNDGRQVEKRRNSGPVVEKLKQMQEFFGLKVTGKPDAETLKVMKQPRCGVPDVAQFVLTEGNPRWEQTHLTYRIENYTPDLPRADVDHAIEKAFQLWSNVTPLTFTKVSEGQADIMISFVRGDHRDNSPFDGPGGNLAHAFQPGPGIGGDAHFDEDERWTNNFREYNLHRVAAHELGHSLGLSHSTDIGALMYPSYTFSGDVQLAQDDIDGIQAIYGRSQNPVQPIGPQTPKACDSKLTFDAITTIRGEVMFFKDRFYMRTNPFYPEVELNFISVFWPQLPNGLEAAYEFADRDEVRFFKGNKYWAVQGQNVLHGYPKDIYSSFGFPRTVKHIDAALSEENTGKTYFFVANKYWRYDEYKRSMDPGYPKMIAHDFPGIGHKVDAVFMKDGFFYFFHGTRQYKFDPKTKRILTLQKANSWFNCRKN

Stromelysin-1 = Stromelysin-1 (Homo sapiens, UniProt P08254); assay: Inhibition of human fibroblast stromelysin, matrix metalloprotease-3
Neutrophil collagenase = Neutrophil collagenase (Homo sapiens, UniProt P22894); assay: Inhibition of human Matrix metalloprotease-8
Matrilysin = target: T2, Matrilysin (Homo sapiens, UniProt P09237); assay: Inhibition of Matrix metalloprotease-7
T2 sequence (P09237 whole entry): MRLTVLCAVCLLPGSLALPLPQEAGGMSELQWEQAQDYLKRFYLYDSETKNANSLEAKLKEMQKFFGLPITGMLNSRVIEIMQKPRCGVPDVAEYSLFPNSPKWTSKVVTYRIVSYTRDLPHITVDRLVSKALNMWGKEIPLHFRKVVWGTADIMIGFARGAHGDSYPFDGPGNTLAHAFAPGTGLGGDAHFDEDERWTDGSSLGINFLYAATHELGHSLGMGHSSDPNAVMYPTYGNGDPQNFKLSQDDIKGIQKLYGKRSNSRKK

Neutrophil collagenase, sequence (P22894 whole entry): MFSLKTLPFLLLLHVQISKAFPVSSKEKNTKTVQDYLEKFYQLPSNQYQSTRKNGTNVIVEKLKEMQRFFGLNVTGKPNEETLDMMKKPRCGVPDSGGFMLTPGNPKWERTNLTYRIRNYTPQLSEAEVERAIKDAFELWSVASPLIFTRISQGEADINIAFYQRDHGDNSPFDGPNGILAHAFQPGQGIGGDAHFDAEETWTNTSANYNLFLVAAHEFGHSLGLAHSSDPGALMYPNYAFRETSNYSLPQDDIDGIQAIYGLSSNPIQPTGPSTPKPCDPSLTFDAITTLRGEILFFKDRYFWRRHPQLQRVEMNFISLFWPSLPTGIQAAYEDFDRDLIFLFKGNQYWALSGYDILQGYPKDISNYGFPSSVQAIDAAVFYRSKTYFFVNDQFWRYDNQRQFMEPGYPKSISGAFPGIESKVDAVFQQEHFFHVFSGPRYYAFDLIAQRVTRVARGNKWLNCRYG
72 kDa type IV collagenase, sequence (P08253 whole entry): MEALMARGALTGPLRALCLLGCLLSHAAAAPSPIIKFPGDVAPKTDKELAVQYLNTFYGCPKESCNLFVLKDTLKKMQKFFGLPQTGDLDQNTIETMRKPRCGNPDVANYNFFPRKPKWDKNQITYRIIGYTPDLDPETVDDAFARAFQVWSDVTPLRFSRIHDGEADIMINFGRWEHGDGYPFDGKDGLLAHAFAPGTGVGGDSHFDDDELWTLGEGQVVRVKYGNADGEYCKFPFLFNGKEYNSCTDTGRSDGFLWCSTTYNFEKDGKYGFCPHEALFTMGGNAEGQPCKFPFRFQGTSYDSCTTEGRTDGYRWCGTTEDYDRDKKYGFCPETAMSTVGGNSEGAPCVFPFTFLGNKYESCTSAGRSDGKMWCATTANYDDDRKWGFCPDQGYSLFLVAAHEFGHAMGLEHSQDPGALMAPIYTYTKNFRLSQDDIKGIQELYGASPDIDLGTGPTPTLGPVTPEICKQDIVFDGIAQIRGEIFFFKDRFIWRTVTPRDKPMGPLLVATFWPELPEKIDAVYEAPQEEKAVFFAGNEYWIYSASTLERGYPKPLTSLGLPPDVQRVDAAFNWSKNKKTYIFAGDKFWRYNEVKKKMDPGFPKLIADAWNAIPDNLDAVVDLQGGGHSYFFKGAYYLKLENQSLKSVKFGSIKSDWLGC
Stromelysin-1, sequence (P08254 whole entry): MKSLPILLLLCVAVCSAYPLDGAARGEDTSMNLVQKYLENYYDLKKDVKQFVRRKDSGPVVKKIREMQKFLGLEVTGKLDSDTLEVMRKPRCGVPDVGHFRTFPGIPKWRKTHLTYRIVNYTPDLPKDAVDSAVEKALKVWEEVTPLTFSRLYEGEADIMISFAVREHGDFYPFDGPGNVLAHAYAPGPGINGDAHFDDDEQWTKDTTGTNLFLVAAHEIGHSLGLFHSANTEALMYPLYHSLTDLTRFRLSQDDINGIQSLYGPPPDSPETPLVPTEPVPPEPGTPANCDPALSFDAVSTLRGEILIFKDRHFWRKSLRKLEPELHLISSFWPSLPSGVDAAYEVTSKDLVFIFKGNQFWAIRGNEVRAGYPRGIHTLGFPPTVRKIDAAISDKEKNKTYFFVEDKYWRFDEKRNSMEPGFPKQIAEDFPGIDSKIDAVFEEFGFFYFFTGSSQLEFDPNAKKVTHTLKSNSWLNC

SMILES	Ki [1] [µM]	Ki (Interstitial collagenase) [µM]	Ki (Stromelysin-1) [µM]	Ki (Neutrophil collagenase) [µM]	Ki (Matrilysin) [µM]
CC(C)C[C@H](CP(=O)(O)CSc1ccc2ccccc2n1)C(=O)N[C@H]1Cc2cn(c3ccccc23)CCCCCCNC1=O	0.014	0.005	0.806	0.004	–
CNC(=O)[C@H](Cc1ccccc1)NC(=O)[C@H](CC(C)C)[C@H](CSc1cccs1)C(=O)O	–	1.5	–	–	–
CCCCCCNC(=O)[C@H](Cc1c[nH]c2ccccc12)NC(=O)[C@@H](CC(=O)NO)CC(C)C	0.0003	0.003	–	0.0005	–
CCCCCCNC(=O)[C@H](Cc1c[nH]c2ccccc12)NC(=O)[C@H](CC(C)C)CP(=O)(O)CSc1ccc2ccccc2n1	0.3	0.432	6.58	0.102	–
CCCCCCNC(=O)[C@H](Cc1c[nH]c2ccccc12)NC(=O)[C@@H](CC(=O)O)CC(C)C	0.472	0.171	–	0.163	> 0.62
